According to patent US10278873B2, “Absorbent article having a domed section and method of manufacturing same” (UNICHARM CORPORATION, priority 2011, dated 2019):

Experiment: Surface tension of blood containing blood modifying agent, pendant drop method (Example 7)
Settings: 0.10 mass % in sheep defibrinated blood; 35° C.
Method: The surface tension of blood containing a blood modifying agent was measured by the pendant drop method, using a Drop Master500 contact angle meter by Kyowa Interface Science Co., Ltd. The surface tension was measured after adding a prescribed amount of blood modifying agent to sheep defibrinated blood, and thoroughly shaking.
The measurement was accomplished automatically with a device, and the […] γ was determined by the following formula (see FIG. 98). γ=g×ρ×(de)^2×1/H
The density ρ was measured at the temperatures listed in Table 5, according to JIS K 2249-1995, “Density test methods and density/mass/volume conversion tables”, “5. Vibrating density test method”.
The measurement was accomplished using a DA-505 by Kyoto Electronics Co., Ltd.

With `CCCCCCCCCCCCOC(=O)CCCCCCCCCCC` [No. 2-18, Ester of dodecanoic acid (C12) and dodecyl alcohol (C12)] the “Surface tension (mN/m)” value was 58.8 mN/m.
